Source: patent US20220273643A1, “METHOD OF TREATING KRAS-ASSOCIATED CANCERS” (THE REGENTS OF THE UNIVERSITY OF MICHIGAN, priority 2019, published 2022)

Key:
[1] = bioavailability; type: in vivo; conditions: systemic injection and oral administration
[2] = solubility in water; type: physicochemical; conditions: pH 3.5
[3] = test system: UMSCC74B; type: in vivo
Description: FIG. 1 depicts the effect of DGD1202 in mutant KRAS (and EGFR co-driven) head and neck (UMSCC74B) tumor model.
Tumor-bearing mice were treated with DGD1202 via oral gavage in 30 mg/kg dose biweekly for one week. This dose was selected based on its single-dose PK profile.

[4] = biological target: T1, EGFR (Homo sapiens, UniProt P00533); experiment: EGF-induced EGFR dimerization; type: cell-based
T1 construct: endogenous in cells; host or cells: HCT-116, Panc1 (inferred; the sentence holding the result names no cells)

[5] = test system: HCT-116; experiment: immunoblotting HCT-116; type: cell-based; conditions: preliminary data
Description: (§1) FIG. 3 depicts the effect of DGD1202 on EGFR, KRAS and downstream signaling. (A). HCT-116 (colorectal cancer) cells were treated with DGD1202 for 5 h or 15 h, and whole cell lysates were probed with listed antibodies. (B). Evaluation of DGD1202 effects against the KRAS G12D driven pancreatic cell line (Panc1) tumor model; effect of treatment on the steady-state level of EGFR and mtKRAS was determined by immunoblotting; and GAPDH expression was assessed as a loading control.
(§2) The effect of DGD1202 on EGFR, ERK and AKT was also evaluated by immunoblotting. The preliminary data for DGD1202 in mutant KRAS driven HCT-116 (CRC) and Panc1 (Pancreas) cell lines are shown in FIG. 3A and FIG. 3B, respectively.
(§3) Cells were plated in 60-mm dishes at a density of 3×10^5 cells per dishes and incubated overnight or to 70% confluence. The cells were treated with the vehicle (DMSO) or DGD1202 and then were harvested at various time points. The pellets were washed twice with ice-cold PBS and re-suspended in lysis buffer for 30 min. After sonication, particulate material was removed by centrifugation at 13,000 rpm for 10 min at 4° C. […] After three additional washes in Tris-buffered saline, bound antibody was detected by enhanced chemiluminescence plus reagent. For quantification of relative protein levels, immunoblot films were scanned and analyzed using Image J 1.32j software. […]

[6] = test system: HCT-116; experiment: clonogenic survival assay HCT-116; type: cell-based; conditions: KRAS G13D driven cetuximab-resistant colorectal cell-line; FIG. 2
Description: A study was conducted to evaluate the activity of DGD1202 in a KRAS G13D driven cetuximab-resistant colorectal cell-line (HCT-116) using clonogenic survival assays (FIG. 2) and in a pancreatic cancer cell line (Panc1) that contains KRAS G12D mutation (FIG. 3B).
More specifically, cells were plated at clonal density in 60 or 100 mm culture dishes in triplicate one day before treatment with a range of concentrations (e.g., 0-10 micro M). Eight to twelve days later, cells were fixed with acetic acid/methanol (1:7, v/v), stained with crystal violet (0.5%, w/v), and counted using a stereomicroscope. Drug cytotoxicity (surviving drug-treated cells) was measured and normalized to the survival of the untreated control cells.

[7] = test system: NCI-H1975-AZR; experiment: NCI-H1975-AZR (osimertinib resistant) xenograft; type: in vivo; conditions: SCID mice, 75 mg/kg oral gavage daily for two weeks
Description: FIG. 5 depicts the effect of DGD1202 on osimertinib resistant, NCI-H1975 lung cancer xenografts. (A). SCID mice bearing NCI-H1975 osimertinib resistant xenografts were treated with DGD1202 (75 mg/kg, daily, PO). The arrow marks the initiation of treatment with DGD1202. Change in tumor volume is plotted. (B). The effect of DGD1202 treatment on EGFR was assessed in tumors harvested 3 days post DGD1202 treatment.
A study was conducted to evaluate the efficacy of DGD1202 in mutant EGFR driven lung cancer model (FIG. 5).
Briefly, SCID mice bearing locally advanced NCI-H1975-AZR (osimertinib resistant) xenograft were treated daily with oral gavage of DGD1202 (75 mg/kg) for two weeks. Tumor volumes were measured using calipers at least three times a week. The effect of DGD1202 treatment on EGFR expression was determined by IHC staining 3-days after initiation of treatment.

[8] = liver microsomal stability; type: in vitro ADME; conditions: compared to two other structurally close compounds
[9] = test system: Panc1; experiment: immunoblotting Panc1; type: cell-based; conditions: Panc1, KRAS G12D specific antibody; preliminary data
Description: as §1, §2, §3

[10] = test system: cetuximab-resistant cell-lines; experiment: IC50 against cetuximab-resistant cell-lines; type: cell-based; conditions: cetuximab-resistant cell-lines expressing mutant KRAS
[11] = biological target: T1, EGFR; experiment: EGFR degradation; type: cell-based; conditions: instead of inhibiting the activity
[12] = test system: lung lesion; experiment: genetically engineered KRAS-LSL-G12D mouse model of lung cancer; type: in vivo, mice; conditions: 30 mg/kg oral gavage Monday-Friday for 4 weeks; paired t-test p=0.0577
Description: The efficacy of DGD1202 treatment was assessed for KRAS-mutant lung tumor initiation and progression. A genetically engineered KRAS-LSL-G12D mouse model of lung cancer was used. This mouse carries a Lox-Stop-Lox (LSL) sequence followed by the KRAS G12D point mutation allele. Tumorigenesis was initiated by intra-nasal delivery of Adenovirus-Cre particles (1.5×10e^7 pfu) that transduced lung epithelial cells to express Cre recombinase that deletes the LSL cassette and allows the expression of the mutant KRAS oncogenic protein.
Eight weeks after viral delivery, the mice were treated either with vehicle or with DGD1202 on a Monday-Friday schedule for 4 weeks at a dose of 30 mg/kg oral gavage. When mice were 20-week old, the lungs were harvested and the H&E sections underwent morphological assessment. The histopathological spectrum of the lung lesions was noted and recorded in a double-blinded fashion for hyperplasia—alveolar or bronchial, the pattern of hyperplasia, adenoma, hyperplasia with focal atypia, bronchial dysplasia, adenomas, and atypical adenomatous hyperplasia. The percentage of lung lesion and total area of lung lesion from each lobe in every sample from both treatment group were scored and are shown in FIG. 6.

[13] = biological target: purified EGFR (Homo sapiens, UniProt P00533); experiment: direct binding to purified EGFR
[14] = test system: EGFR-driven osimertinib resistant cell lines; experiment: activity in osimertinib resistant cell lines; type: cell-based
[15] = test system: immortalized cells of non-cancer origin; experiment: IC50 in immortalized cells of non-cancer origin; type: cell-based
[16] = test system: PanIn (pancreatic intraepithelial neoplasia); experiment: KRAS G12D driven pancreatic tumor model (KC mice); type: in vivo; conditions: 30 mg/kg oral gavage daily for 5 weeks, scored at week 11
Description: A study was conducted to evaluate the efficacy of DGD1202 in KRAS G12D driven pancreatic tumor model.
More specifically, 6-week old KC mice were treated with DGD1202 via oral gavage (30 mg/kg body weight, daily) for 5 weeks.

T1 sequence (P00533 25-1210): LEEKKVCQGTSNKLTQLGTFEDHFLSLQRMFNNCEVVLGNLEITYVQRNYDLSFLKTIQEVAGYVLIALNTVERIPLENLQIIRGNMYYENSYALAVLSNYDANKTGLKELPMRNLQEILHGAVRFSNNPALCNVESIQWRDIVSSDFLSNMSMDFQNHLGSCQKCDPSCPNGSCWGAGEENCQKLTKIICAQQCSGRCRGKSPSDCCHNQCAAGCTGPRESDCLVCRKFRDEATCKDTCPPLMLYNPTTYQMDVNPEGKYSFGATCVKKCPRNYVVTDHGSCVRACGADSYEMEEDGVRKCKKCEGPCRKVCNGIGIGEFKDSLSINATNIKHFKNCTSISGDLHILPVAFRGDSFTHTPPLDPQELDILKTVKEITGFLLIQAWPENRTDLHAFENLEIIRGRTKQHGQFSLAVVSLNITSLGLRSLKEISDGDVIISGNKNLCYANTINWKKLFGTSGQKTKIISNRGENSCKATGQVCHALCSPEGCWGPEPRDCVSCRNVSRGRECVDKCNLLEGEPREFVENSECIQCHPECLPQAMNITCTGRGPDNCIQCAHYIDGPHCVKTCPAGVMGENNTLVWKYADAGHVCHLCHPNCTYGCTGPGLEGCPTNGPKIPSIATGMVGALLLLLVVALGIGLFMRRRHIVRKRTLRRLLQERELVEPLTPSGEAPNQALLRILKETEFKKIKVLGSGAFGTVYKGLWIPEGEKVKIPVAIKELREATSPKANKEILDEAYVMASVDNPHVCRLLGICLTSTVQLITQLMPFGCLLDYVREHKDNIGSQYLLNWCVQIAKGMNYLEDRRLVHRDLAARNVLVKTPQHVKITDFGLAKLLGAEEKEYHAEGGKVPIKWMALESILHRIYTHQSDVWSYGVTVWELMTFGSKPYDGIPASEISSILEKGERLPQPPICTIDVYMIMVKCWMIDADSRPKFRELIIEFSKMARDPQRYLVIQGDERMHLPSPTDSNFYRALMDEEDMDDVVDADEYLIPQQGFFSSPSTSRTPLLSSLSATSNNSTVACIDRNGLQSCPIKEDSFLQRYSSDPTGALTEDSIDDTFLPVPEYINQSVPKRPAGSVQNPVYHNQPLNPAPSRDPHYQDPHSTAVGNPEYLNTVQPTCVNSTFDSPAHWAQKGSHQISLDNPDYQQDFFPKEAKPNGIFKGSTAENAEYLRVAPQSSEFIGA
Sequence of purified EGFR (P00533 25-1210): as above

CN1CCC2(CC1)N=C(SCC(=O)Nc1cnc3ccccc3c1)C(c1ccc(Br)cc1)=N2 [DGD1202, 2-((3-(4-bromophenyl)-8-methyl-1,4,8-triazaspiro[4.5]deca-1,3-dien-2-yl)thio)-N-(quinolin-3-yl)acetamide]
bioavailability [1]: bioavailable
solubility in water [2]: soluble in water at pH 3.5
safety of dose and regimen ([3]; 30 mg/kg oral gavage, tumor-bearing mice): safe
tumor growth ([3]; UMSCC74B tumor-bearing mice, DGD1202 30 mg/kg oral gavage, cetuximab 100 mg/kg (FIG. 1), P<0.001 for DGD1202): significant tumor growth suppression
EGF-induced EGFR dimerization [4]: blocks EGF-induced EGFR dimerization
EGFR and KRAS levels by immunoblotting ([5]; HCT116, PAN-RAS antibody, 5 h or 15 h): affected both EGFR and mtKRAS
downstream signaling pAKT and pERK by immunoblotting ([5]; HCT-116): affected downstream signaling in pAKT and pERK
clonogenic survival [6]: effective
efficacy on tumor volume [7]: exhibited efficacy
liver microsomal stability [8]: much better liver microsomal stability
EGFR and mtKRAS levels by immunoblotting [9]: affected both EGFR and mtKRAS (Panc1) levels
IC50 [10]: 500 to 2200 nM
EGFR degradation [11]: degrades EGFR
percentage of lung lesion and total area of lung lesion vs vehicle [12]: tend towards significance
binding to purified EGFR [13]: directly binds to purified EGFR
activity in EGFR-driven osimertinib resistant cell lines [14]: selectively active
IC50 [15]: > 20 µM
effect on PanIn (pancreatic intraepithelial neoplasia) [16]: significantly reduced propensity for developing PanIn
